Values of other authors as cited in US12421507B2, “Methods and compositions for optochemical control of CRISPR-CAS9” (THE BROAD INSTITUTE, INC., priority 2018, dated 2025).

Legend:
[1] = tested on: Mutants of human FKBP12
[2] = tested on: mammalian DHFR (DHFRts); settings: cells expressing DHFRts
[3] = tested on: dystrophin exon 51; settings: across 48 weeks

Compound: CC[C@H](C(=O)N1CCCC[C@H]1C(=O)O[C@H](CCc1ccc(OC)c(OC)c1)c1cccc(OCCN2CCOCC2)c1)c1cc(OC)c(OC)c(OC)c1 [Shield-1]
- binding to and stabilization of the DD [1]: bind to and stabilize the DD in a dose-dependent manner

Compound: CN(Cc1cnc2nc(N)nc(N)c2n1)c1ccc(C(=O)N[C@@H](CCC(=O)O)C(=O)O)cc1 [methotrexate]
- degradation of DHFRts [2]: inhibited degradation of the protein partially

Compound: eteplirsen
- average dystrophin positive fibers compared to baseline [3]: 47%
